Where “and” joins values, the source holds several entries; their conditions need not be identical. Equal entries are not always repeated.
How the values were obtained:
Lewis rats, CIA model = test: Collagen-induced semi-established arthritis model in rats; type: in vivo, rat
Experimental: Rat CIA model was performed was performed at Pharmenterprises, Russia and approved by Ethics Committee of Pharmenterprises. Female Lewis rats with body weight of 164–183 g (Charles River Laboratories, Inc., Wilmington, MA) were injected with porcine type II collagen (Chondrex) emulsified with Freund’s Incomplete Adjuvant (Sigma Aldrich) at two sites at the base of the tail according to standard protocol. On day 7, the rats were boosted with a second subcutaneous injection. On day 6 of the study, rats were randomized by body weight into six groups: a control group of four, and five treatment groups of eight. […] Disease progression was monitored via daily ankle thickness measurements. At study termination on day 16 rats were anesthetized with Isoflurane, bled by vacutainer through the descending aorta to exsanguinate and then euthanized for tissue collection. Hind paws were transected at the level of the medial and lateral malleolus, weighed, and collected for microscopy.
[…]

RIPK3 = molecular target: T1, RIPK3 (Homo sapiens, UniProt Q9Y572); test: Kinase selectivity profile assay; type: biochemical; details: 500 nM; relative to DMSO; read-out: Residual enzymatic activity
T1 construct: purchased Reaction Biology Corporation
T1 sequence (Q9Y572 whole entry): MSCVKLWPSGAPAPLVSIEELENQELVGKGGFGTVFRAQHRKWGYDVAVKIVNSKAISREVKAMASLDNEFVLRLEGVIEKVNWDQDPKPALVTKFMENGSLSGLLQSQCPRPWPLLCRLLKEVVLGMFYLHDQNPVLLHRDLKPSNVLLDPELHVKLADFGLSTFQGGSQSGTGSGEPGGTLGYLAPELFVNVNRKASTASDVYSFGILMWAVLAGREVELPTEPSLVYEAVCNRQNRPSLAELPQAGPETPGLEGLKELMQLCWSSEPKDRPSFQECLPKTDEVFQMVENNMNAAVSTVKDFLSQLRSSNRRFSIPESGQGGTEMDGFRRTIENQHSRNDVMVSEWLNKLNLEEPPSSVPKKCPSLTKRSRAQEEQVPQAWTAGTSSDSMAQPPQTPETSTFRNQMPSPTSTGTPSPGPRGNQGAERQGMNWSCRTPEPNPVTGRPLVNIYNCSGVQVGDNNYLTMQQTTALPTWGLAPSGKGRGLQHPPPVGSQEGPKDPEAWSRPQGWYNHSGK
Experimental: (§1) The activity of MT-SYK-03 against cSrc kinase and selectivity profile towards other 341 kinases was determined at Reaction Biology Corporation (Malvern, PA, USA) using the standard kinase assay protocol. […]; unbound phosphate was removed by extensive washing of filters in phosphoric acid. Kinase activity data was expressed as the percent remaining kinase activity in test samples compared to vehicle (dimethyl sulfoxide) reactions based on the radioactivity of reaction products (see Table S2). Experiment was replicated twice.

DAPK1 = molecular target: T2, DAPK1 (Homo sapiens, UniProt P53355); test: Kinase selectivity profile assay; type: biochemical; details: 500 nM; relative to DMSO; read-out: Residual enzymatic activity
T2 construct: purchased Reaction Biology Corporation
T2 sequence (P53355 whole entry): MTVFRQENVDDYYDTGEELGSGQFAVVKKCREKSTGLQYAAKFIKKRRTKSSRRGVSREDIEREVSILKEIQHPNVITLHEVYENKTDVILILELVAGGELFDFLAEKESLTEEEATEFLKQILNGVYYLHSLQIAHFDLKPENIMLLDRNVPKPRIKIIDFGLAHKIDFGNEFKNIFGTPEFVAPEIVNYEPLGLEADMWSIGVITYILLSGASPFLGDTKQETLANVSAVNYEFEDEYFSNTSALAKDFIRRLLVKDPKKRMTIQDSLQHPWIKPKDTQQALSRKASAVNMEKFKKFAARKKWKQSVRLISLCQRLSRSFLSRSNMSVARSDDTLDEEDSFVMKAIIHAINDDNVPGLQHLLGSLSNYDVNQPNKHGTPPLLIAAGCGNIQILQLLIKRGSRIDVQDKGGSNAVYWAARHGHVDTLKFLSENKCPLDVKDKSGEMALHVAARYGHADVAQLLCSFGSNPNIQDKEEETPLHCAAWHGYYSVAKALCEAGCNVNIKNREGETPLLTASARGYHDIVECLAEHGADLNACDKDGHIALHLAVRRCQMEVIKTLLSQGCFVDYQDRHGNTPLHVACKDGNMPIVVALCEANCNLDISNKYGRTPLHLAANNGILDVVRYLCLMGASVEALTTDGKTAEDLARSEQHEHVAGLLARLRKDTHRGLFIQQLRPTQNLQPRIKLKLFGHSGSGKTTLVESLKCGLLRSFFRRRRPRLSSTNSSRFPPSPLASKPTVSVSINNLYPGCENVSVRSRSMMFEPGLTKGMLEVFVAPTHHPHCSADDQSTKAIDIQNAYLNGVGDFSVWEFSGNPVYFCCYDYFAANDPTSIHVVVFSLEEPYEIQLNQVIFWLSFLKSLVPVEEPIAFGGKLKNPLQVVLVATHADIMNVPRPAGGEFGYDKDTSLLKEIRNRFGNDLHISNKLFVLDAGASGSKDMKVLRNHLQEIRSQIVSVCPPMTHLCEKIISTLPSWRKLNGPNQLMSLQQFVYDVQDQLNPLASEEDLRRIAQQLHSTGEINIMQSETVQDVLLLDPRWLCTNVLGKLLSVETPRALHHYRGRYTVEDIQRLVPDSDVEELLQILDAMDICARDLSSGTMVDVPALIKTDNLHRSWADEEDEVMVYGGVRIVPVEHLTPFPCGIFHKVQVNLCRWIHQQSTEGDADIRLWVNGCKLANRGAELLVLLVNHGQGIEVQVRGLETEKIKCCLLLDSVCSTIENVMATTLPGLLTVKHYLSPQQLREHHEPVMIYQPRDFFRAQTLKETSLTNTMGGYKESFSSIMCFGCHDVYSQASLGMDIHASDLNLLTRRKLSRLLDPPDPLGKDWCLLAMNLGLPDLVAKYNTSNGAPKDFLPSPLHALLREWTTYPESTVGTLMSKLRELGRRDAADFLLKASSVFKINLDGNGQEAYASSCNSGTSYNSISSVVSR
Experimental: as §1

SGK1 = molecular target: T3, SGK1 (Homo sapiens, UniProt O00141); test: Kinase selectivity profile assay; type: biochemical; details: 500 nM; relative to DMSO; read-out: Residual enzymatic activity
T3 construct: purchased Reaction Biology Corporation
T3 sequence (O00141 whole entry): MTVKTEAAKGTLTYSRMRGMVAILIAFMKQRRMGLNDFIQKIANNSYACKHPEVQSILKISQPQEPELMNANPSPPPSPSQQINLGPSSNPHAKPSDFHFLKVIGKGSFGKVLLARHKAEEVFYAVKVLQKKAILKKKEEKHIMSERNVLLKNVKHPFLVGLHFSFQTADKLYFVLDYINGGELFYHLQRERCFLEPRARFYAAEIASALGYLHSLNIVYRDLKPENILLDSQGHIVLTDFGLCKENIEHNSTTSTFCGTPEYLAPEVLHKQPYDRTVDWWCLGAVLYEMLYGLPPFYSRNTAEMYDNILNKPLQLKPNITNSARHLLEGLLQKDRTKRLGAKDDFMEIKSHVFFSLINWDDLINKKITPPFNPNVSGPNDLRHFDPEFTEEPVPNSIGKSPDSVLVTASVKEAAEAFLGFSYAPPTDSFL
Experimental: as §1

MYO3b = molecular target: T4, MYO3b (Homo sapiens, UniProt Q8WXR4); test: Kinase selectivity profile assay; type: biochemical; details: 500 nM; relative to DMSO; read-out: Residual enzymatic activity
T4 construct: purchased Reaction Biology Corporation
Experimental: as §1

CAMKK2 = molecular target: T5, CAMKK2 (Homo sapiens, UniProt Q96RR4); test: Kinase selectivity profile assay; type: biochemical; details: 500 nM; relative to DMSO; read-out: Residual enzymatic activity
T5 construct: purchased Reaction Biology Corporation
Experimental: as §1

PDK1/PDPK1 = molecular target: T6, PDK1/PDPK1 (Homo sapiens, UniProt O15530); test: Kinase selectivity profile assay; type: biochemical; details: 500 nM; relative to DMSO; read-out: Residual enzymatic activity
T6 construct: purchased Reaction Biology Corporation
T6 sequence (O15530 whole entry): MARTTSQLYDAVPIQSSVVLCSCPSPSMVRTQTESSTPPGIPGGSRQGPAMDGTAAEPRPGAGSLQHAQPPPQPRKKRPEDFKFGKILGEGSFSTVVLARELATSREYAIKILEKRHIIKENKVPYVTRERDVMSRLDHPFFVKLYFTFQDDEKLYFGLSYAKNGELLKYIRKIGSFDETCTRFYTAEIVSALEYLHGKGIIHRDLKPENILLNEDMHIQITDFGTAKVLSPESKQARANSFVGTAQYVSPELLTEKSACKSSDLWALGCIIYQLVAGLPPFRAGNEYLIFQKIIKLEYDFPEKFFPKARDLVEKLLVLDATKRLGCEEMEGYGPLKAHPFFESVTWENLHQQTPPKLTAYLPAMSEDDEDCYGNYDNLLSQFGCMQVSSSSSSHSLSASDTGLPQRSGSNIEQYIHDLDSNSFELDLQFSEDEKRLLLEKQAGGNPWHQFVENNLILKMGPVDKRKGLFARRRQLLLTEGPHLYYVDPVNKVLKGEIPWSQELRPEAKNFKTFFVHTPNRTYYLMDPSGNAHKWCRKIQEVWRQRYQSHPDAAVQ
Experimental: as §1

GCK/MAP4K2 = molecular target: T7, GCK/MAP4K2 (Homo sapiens, UniProt Q12851); test: Kinase selectivity profile assay; type: biochemical; details: 500 nM; relative to DMSO; read-out: Residual enzymatic activity
T7 construct: purchased Reaction Biology Corporation
Experimental: as §1

BRK = molecular target: T8, BRK (Homo sapiens, UniProt Q13882); test: Kinase selectivity profile assay; type: biochemical; details: 500 nM; relative to DMSO; read-out: Residual enzymatic activity
T8 construct: purchased Reaction Biology Corporation
Experimental: as §1

MAPKAPK2 = molecular target: T9, MAPKAPK2 (Homo sapiens, UniProt P49137); test: Kinase selectivity profile assay; type: biochemical; details: 500 nM; relative to DMSO; read-out: Residual enzymatic activity
T9 construct: purchased Reaction Biology Corporation
T9 sequence (P49137 whole entry): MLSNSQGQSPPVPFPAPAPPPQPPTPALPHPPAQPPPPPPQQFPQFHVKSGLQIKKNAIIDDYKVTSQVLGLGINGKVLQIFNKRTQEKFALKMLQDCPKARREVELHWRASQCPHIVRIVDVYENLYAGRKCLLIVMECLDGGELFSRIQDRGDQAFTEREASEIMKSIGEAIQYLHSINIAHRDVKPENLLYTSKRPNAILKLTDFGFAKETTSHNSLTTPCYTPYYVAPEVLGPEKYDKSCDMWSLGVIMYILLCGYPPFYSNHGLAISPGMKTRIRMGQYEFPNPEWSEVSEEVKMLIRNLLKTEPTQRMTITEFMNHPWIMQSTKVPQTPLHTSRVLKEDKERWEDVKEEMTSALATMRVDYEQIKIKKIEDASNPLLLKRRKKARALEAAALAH
Experimental: as §1

DCAMKL2 = molecular target: T10, DCAMKL2 (Homo sapiens, UniProt Q8N568); test: Kinase selectivity profile assay; type: biochemical; details: 500 nM; relative to DMSO; read-out: Residual enzymatic activity
T10 construct: purchased Reaction Biology Corporation
Experimental: as §1

GRK1 = molecular target: T11, GRK1 (Homo sapiens, UniProt Q15835); test: Kinase selectivity profile assay; type: biochemical; details: 500 nM; relative to DMSO; read-out: Residual enzymatic activity
T11 construct: purchased Reaction Biology Corporation
T11 sequence (Q15835 whole entry): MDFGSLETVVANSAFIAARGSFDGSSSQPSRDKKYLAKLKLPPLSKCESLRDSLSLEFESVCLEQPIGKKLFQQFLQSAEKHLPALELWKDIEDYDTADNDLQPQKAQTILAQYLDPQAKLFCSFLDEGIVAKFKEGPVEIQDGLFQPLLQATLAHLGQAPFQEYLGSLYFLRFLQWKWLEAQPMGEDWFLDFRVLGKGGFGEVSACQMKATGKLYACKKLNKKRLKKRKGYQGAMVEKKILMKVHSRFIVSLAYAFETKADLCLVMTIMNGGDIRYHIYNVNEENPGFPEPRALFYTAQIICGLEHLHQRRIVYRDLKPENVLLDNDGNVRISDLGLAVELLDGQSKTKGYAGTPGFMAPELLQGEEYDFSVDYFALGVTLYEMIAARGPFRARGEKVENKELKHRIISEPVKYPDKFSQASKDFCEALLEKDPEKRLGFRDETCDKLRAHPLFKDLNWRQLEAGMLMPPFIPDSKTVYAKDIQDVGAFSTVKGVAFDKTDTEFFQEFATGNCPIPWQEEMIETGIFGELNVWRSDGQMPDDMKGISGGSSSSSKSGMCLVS
Experimental: as §1

CDK5/p35 = molecular target: T12, CDK5/p35 (Homo sapiens, UniProt Q00535); test: Kinase selectivity profile assay; type: biochemical; details: 500 nM; relative to DMSO; read-out: Residual enzymatic activity
T12 construct: purchased Reaction Biology Corporation
T12 sequence (Q00535 whole entry): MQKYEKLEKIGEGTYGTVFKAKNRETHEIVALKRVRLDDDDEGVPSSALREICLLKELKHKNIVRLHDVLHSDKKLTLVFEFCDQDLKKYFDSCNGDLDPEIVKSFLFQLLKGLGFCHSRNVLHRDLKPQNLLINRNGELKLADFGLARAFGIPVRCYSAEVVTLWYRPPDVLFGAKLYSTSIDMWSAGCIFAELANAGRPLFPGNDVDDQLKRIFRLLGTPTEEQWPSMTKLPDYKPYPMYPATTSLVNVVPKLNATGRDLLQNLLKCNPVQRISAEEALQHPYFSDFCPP
T12 sequence (Q15078 whole entry partner): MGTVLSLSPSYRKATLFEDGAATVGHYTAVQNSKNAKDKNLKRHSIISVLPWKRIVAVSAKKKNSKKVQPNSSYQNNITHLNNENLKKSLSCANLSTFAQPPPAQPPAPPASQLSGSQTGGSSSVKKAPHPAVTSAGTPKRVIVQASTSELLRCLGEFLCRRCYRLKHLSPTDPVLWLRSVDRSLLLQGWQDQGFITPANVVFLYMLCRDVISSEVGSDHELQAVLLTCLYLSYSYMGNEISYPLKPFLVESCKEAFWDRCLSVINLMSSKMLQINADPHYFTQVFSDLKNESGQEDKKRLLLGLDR
Experimental: as §1

PDGFRa = molecular target: T13, PDGFRa (Homo sapiens, UniProt P16234); test: Kinase selectivity profile assay; type: biochemical; details: 500 nM; relative to DMSO; read-out: Residual enzymatic activity
T13 construct: purchased Reaction Biology Corporation (Malvern, PA, USA)
Experimental: as §1

STK32C/YANK3 = molecular target: T14, STK32C/YANK3 (Homo sapiens, UniProt Q86UX6); test: Kinase selectivity profile assay; type: biochemical; details: 500 nM; relative to DMSO; read-out: Residual enzymatic activity
T14 construct: purchased Reaction Biology Corporation
T14 sequence (Q86UX6 whole entry): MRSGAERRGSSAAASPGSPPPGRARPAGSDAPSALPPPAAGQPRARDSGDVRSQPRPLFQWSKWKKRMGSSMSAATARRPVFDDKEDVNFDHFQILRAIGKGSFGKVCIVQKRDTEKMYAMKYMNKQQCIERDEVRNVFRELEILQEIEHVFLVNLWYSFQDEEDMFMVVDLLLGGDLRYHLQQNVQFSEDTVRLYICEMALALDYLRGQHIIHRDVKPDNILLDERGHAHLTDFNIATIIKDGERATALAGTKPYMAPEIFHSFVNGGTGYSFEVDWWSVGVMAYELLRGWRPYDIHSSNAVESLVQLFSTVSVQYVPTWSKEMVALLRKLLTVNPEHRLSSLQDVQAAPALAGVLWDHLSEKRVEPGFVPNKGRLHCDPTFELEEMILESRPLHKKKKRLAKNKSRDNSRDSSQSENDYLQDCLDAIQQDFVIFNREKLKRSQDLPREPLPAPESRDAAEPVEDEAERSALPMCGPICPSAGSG
Experimental: as §1

LATS2 = molecular target: T15, LATS2 (Homo sapiens, UniProt Q9NRM7); test: Kinase selectivity profile assay; type: biochemical; details: 500 nM; relative to DMSO; read-out: Residual enzymatic activity
T15 construct: purchased Reaction Biology Corporation
Experimental: as §1

BRAF = molecular target: T16, BRAF (Homo sapiens, UniProt P15056); test: Kinase selectivity profile assay; type: biochemical; details: 500 nM; relative to DMSO; read-out: Residual enzymatic activity
T16 construct: purchased Reaction Biology Corporation
Experimental: as §1

ROCK2 = molecular target: T17, ROCK2 (Homo sapiens, UniProt O75116); test: Kinase selectivity profile assay; type: biochemical; details: 500 nM; relative to DMSO; read-out: Residual enzymatic activity
T17 construct: purchased Reaction Biology Corporation
Experimental: as §1

DRAK1/STK17A = molecular target: T18, DRAK1/STK17A (Homo sapiens, UniProt Q9UEE5); test: Kinase selectivity profile assay; type: biochemical; details: 500 nM; relative to DMSO; read-out: Residual enzymatic activity
T18 construct: purchased Reaction Biology Corporation
Experimental: as §1

ALK2/ACVR1 = molecular target: T19, ALK2/ACVR1 (Homo sapiens, UniProt Q04771); test: Kinase selectivity profile assay; type: biochemical; details: 500 nM; relative to DMSO; read-out: Residual enzymatic activity
T19 construct: purchased Reaction Biology Corporation
Experimental: as §1

GRK3 = molecular target: T20, GRK3 (Homo sapiens, UniProt P35626); test: Kinase selectivity profile assay; type: biochemical; details: 500 nM; relative to DMSO; read-out: Residual enzymatic activity
T20 construct: purchased Reaction Biology Corporation
Experimental: as §1

[1] = ankle, day 16, MTX 0.075 mg/kg PO QD + test article vehicle PO BID, group mean
[2] = ankle, day 16, MTX 0.075 mg/kg PO QD + test article vehicle PO BID, individual joint (animal, R/L)
[3] = ankle, day 16, MTX 0.075 mg/kg PO QD + test article vehicle PO BID, vs vehicle
[4] = knee, day 16, MTX 0.075 mg/kg PO QD + test article vehicle PO BID, group mean
[5] = knee, day 16, MTX 0.075 mg/kg PO QD + test article vehicle PO BID, individual joint (animal, R/L)
[6] = knee, day 16, MTX 0.075 mg/kg PO QD + test article vehicle PO BID, vs vehicle

With `CN(Cc1cnc2nc(N)nc(N)c2n1)c1ccc(C(=O)N[C@@H](CCC(=O)O)C(=O)O)cc1` [MTX, methotrexate, reference compound] the “Bone Resorption score, Mean” value (Lewis rats, CIA model; [1]) was 1.19, the “Cartilage Damage score, Mean” value (Lewis rats, CIA model; [1]) was 2.00 and the “Inflammation score, Mean” value (Lewis rats, CIA model; [1]) was 3.88. The “Pannus score, Mean” value (Lewis rats, CIA model; [1]) was 1.19, the “Periosteal Bone Formation score, Mean” value (Lewis rats, CIA model; [1]) was 0.63 and the “Periosteal Naïve Bone Width Actual, Mean” value (Lewis rats, CIA model; [1]) was 126.00 μm. The “Summed Histopathology Scores, Mean” value (Lewis rats, CIA model; [1]) was 8.88, the “Bone Resorption score (0=normal to 5=severe)” value (Lewis rats, CIA model; [2]) was 2 and 0 and 1 and 0.5 and the “Cartilage Damage score (0=normal to 5=severe)” value (Lewis rats, CIA model; [2]) was 3 and 0.5 and 2. The “Inflammation score (0=normal to 5=severe)” value (Lewis rats, CIA model; [2]) was 5 and 1 and 4 and 3 and 2, the “Pannus score (0=normal to 5=severe)” value (Lewis rats, CIA model; [2]) was 2 and 0 and 1 and 0.5 and the “Periosteal Bone Formation score (0=normal to 5=severe)” value (Lewis rats, CIA model; [2]) was 1 and 0 and 0.5. For the same compound, the “Periosteal Naïve Bone Width 16x Measure” value (Lewis rats, CIA model; [2]) was 3 and 4 and 0 and 2 and 1, the “Periosteal Naïve Bone Width Actual” value (Lewis rats, CIA model; [2]) was 189 μm and 252 μm and 0 μm and 126 μm and 63 μm and the “Summed Histopathology Scores” value (Lewis rats, CIA model; [2]) was 13 and 1.5 and 9.5 and 8.5 and 6.5 and 12 and 4. For the same compound, the “Periosteal Naïve Bone Width, ANOVA to Vehicle” value (Lewis rats, CIA model; ankle, day 16, MTX 0.075 mg/kg PO QD + test article vehicle PO BID, p value) was “p < 0.05”, the “Bone Resorption score, % inhibition” value (Lewis rats, CIA model; [3]) was 19% and the “Cartilage Damage score, % inhibition” value (Lewis rats, CIA model; [3]) was 17%. The “Inflammation score, % inhibition” value (Lewis rats, CIA model; [3]) was 14%, the “Pannus score, % inhibition” value (Lewis rats, CIA model; [3]) was 19% and the “Periosteal Bone Formation score, % inhibition” value (Lewis rats, CIA model; [3]) was 51%. The “Periosteal Naïve Bone Width, % inhibition” value (Lewis rats, CIA model; [3]) was 44%, the “Summed Histopathology Scores, % inhibition” value (Lewis rats, CIA model; [3]) was 20% and the “Bone Resorption score, Mean” value (Lewis rats, CIA model; [4]) was 0.28. The “Cartilage Damage score, Mean” value (Lewis rats, CIA model; [4]) was 0.66, the “Inflammation score, Mean” value (Lewis rats, CIA model; [4]) was 2.03 and the “Pannus score, Mean” value (Lewis rats, CIA model; [4]) was 0.44. For the same compound, the “Summed Histopathology Scores, Mean” value (Lewis rats, CIA model; [4]) was 3.41, the “Bone Resorption score (0=normal to 5=severe)” value (Lewis rats, CIA model; [5]) was 0.5 and 0 and 1 and the “Cartilage Damage score (0=normal to 5=severe)” value (Lewis rats, CIA model; [5]) was 1 and 0.5 and 0 and 2. The “Inflammation score (0=normal to 5=severe)” value (Lewis rats, CIA model; [5]) was 3 and 0.5 and 1 and 0 and 5 and 4 and 2, the “Pannus score (0=normal to 5=severe)” value (Lewis rats, CIA model; [5]) was 0.5 and 0 and 1 and the “Summed Histopathology Scores” value (Lewis rats, CIA model; [5]) was 5 and 4.5 and 0.5 and 2 and 1 and 0 and 9 and 6 and 5.5 and 3. For the same compound, the “Bone Resorption score, % inhibition” value (Lewis rats, CIA model; [6]) was 61%, the “Cartilage Damage score, % inhibition” value (Lewis rats, CIA model; [6]) was 50% and the “Inflammation score, % inhibition” value (Lewis rats, CIA model; [6]) was 36%. The “Pannus score, % inhibition” value (Lewis rats, CIA model; [6]) was 42%, the “Summed Histopathology Scores, % inhibition” value (Lewis rats, CIA model; [6]) was 43% and the “Decrease of periosteal bone width in knee joints” value (Lewis rats, CIA model; rat CIA, MTX 0.075 mg/kg PO QD) was ~ 43%. The “Histopathology scores for cartilage damage and bone resorption, ankles and knees” value (Lewis rats, CIA model; rat CIA, day 16) was “did not show statistical significance for any parameter”.

`COc1cc(Nc2ncc(F)c(Nc3ccc4c(n3)NC(=O)C(C)(C)O4)n2)cc(OC)c1OC` [R406, reference compound] showed a remaining activity at 0.5 µM (RIPK3) of 107%, a remaining activity at 0.5 µM (DAPK1) of 65.2% and a remaining activity at 0.5 µM (SGK1) of 109%. The remaining activity at 0.5 µM (MYO3b) was 94.1%, the remaining activity at 0.5 µM (CAMKK2) was 88.8% and the remaining activity at 0.5 µM (PDK1/PDPK1) was 30.7%. It also gave a remaining activity at 0.5 µM (GCK/MAP4K2) of 77.5%, a remaining activity at 0.5 µM (BRK) of 27.6% and a remaining activity at 0.5 µM (MAPKAPK2) of 106%. The remaining activity at 0.5 µM (DCAMKL2) was 91.8%, the remaining activity at 0.5 µM (GRK1) was 96% and the remaining activity at 0.5 µM (CDK5/p35) was 82.9%. The remaining activity at 0.5 µM (PDGFRa) was 10.5%, the remaining activity at 0.5 µM (STK32C/YANK3) was 102% and the remaining activity at 0.5 µM (LATS2) was 51.2%. For the same compound, the remaining activity at 0.5 µM (BRAF) was 95.9%, the remaining activity at 0.5 µM (ROCK2) was 77.6% and the remaining activity at 0.5 µM (DRAK1/STK17A) was 43.3%. It also gave a remaining activity at 0.5 µM (ALK2/ACVR1) of 135% and a remaining activity at 0.5 µM (GRK3) of 102%.

Reference: article PMC8632988, “Inhibition of SYK and cSrc kinases can protect bone and cartilage in preclinical models of osteoarthritis and rheumatoid arthritis” (Scientific Reports, 2021)
